Source: patent publication US20240043404A1 (AbbVie Inc., priority 2009, published 2024)

Test system: RS4;11 cells
Test: RS4;11 cell viability assay (CellTiter Glo);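 note: acute lymphoblastic leukemia line RS4,11, EC50 derived from percentage of viable cells after treatment relative to untreated controls, cell killing taken as a measure of Bcl-2 inhibition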
Assay type: cell-based, human
Settings: Homo sapiens, RS4-11, 48 h, 50,000 cells per well, 10% human serum, 48 hours; read-out: RS4; 11 EC50 Values
Protocol: The acute lymphoblastic leukemia (ALL) cell line RS4;11 was used as the primary human cell line to assess the cellular activity of Bcl-2 selective agents in vitro and their efficacy in vivo.
Cell cytotoxicity EC50 values were assessed using CellTiter Glo (Promega) according to the manufacturer's recommendations. The EC50 values were determined as a percentage of viable cells following treatment compared to the untreated control cells.

EC50	Structure (SMILES)
214 nM	CC1(C)CCC(CN2CCN(c3ccc(C(=O)NS(=O)(=O)c4cnc(O[C@@H]5CCN(C(CF)CF)C5)c(Cl)c4)c(Oc4cnc5[nH]ccc5c4)c3)CC2)=C(c2ccc(Cl)cc2)C1 [Example 274, N-[(5-chloro-6-{[(3R)-1-(1,3-difluoropropan-2-yl)pyrrolidin-3-yl]oxy}pyridin-3-yl)sulfonyl]-4-(4-{[2-(4-chlorophenyl)-4,4-dimethylcyclohex-1-en-1-yl]methyl}piperazin-1-yl)-2-(1H-pyrrolo[2,3-b]pyridin-5-yloxy)benzamide]
143 nM	CC1(C)CCC(CN2CCN(c3ccc(C(=O)NS(=O)(=O)c4ccc(OCCOC5CCOC5)c([N+](=O)[O-])c4)c(Oc4cnc5[nH]ccc5c4)c3)CC2)=C(c2ccc(Cl)cc2)C1 (stereo not shown) [Example 275, 4-(4-{[2-(4-chlorophenyl)-4,4-dimethylcyclohex-1-en-1-yl]methyl}piperazin-1-yl)-N-({3-nitro-4-[2-(tetrahydrofuran-3-yloxy)ethoxy]phenyl}sulfonyl)-2-(1H-pyrrolo[2,3-b]pyridin-5-yloxy)benzamide]
3.5 nM	CC1(C)CCC(CN2CCN(c3ccc(C(=O)NS(=O)(=O)c4ccc(NC[C@H]5CC[C@H](C#N)CC5)c([N+](=O)[O-])c4)c(Oc4cnc5[nH]ccc5c4)c3)CC2)=C(c2ccc(Cl)cc2)C1 [Example 276, 4-(4-{[2-(4-chlorophenyl)-4,4-dimethylcyclohex-1-en-1-yl]methyl}piperazin-1-yl)-N-[(4-{[(trans-4-cyanocyclohexyl)methyl]amino}-3-nitrophenyl)sulfonyl]-2-(1H-pyrrolo[2,3-b]pyridin-5-yloxy)benzamide]
8.18 nM	CC1(C)CCC(CN2CCN(c3ccc(C(=O)NS(=O)(=O)c4cnc(OCC5(F)CCN(C6COC6)CC5)c(Cl)c4)c(Oc4cnc5[nH]ccc5c4)c3)CC2)=C(c2ccc(Cl)cc2)C1 [Example 277, N-[(5-chloro-6-{[4-fluoro-1-(oxetan-3-yl)piperidin-4-yl]methoxy}pyridin-3-yl)sulfonyl]-4-(4-{[2-(4-chlorophenyl)-4,4-dimethylcyclohex-1-en-1-yl]methyl}piperazin-1-yl)-2-(1H-pyrrolo[2,3-b]pyridin-5-yloxy)benzamide]
794 nM	CC1(C)CCC(CN2CCN(c3ccc(C(=O)NS(=O)(=O)c4cnc(OCCC5CCOCC5)c(C#N)c4)c(Oc4cnc5[nH]ccc5c4)c3)CC2)=C(c2ccc(Cl)cc2)C1 [Example 278, 4-(4-{[2-(4-chlorophenyl)-4,4-dimethylcyclohex-1-en-1-yl]methyl}piperazin-1-yl)-N-({5-cyano-6-[2-(tetrahydro-2H-pyran-4-yl)ethoxy]pyridin-3-yl}sulfonyl)-2-(1H-pyrrolo[2,3-b]pyridin-5-yloxy)benzamide]
225 nM	CC1(C)CCC(CN2CCN(c3ccc(C(=O)NS(=O)(=O)c4ccc(OCc5ccoc5)c([N+](=O)[O-])c4)c(Oc4cnc5[nH]ccc5c4)c3)CC2)=C(c2ccc(Cl)cc2)C1 [Example 279, 4-(4-{[2-(4-chlorophenyl)-4,4-dimethylcyclohex-1-en-1-yl]methyl}piperazin-1-yl)-N-{[4-(3-furylmethoxy)-3-nitrophenyl]sulfonyl}-2-(1H-pyrrolo[2,3-b]pyridin-5-yloxy)benzamide]
459 nM	CC1(C)CCC(CN2CCN(c3ccc(C(=O)NS(=O)(=O)c4cnc(OC[C@@H]5CCN(C(CF)CF)C5)c(Cl)c4)c(Oc4cnc5[nH]ccc5c4)c3)CC2)=C(c2ccc(Cl)cc2)C1 [Example 280, N-[(5-chloro-6-{[(3R)-1-(1,3-difluoropropan-2-yl)pyrrolidin-3-yl]methoxy}pyridin-3-yl)sulfonyl]-4-(4-{[2-(4-chlorophenyl)-4,4-dimethylcyclohex-1-en-1-yl]methyl}piperazin-1-yl)-2-(1H-pyrrolo[2,3-b]pyridin-5-yloxy)benzamide]
654 nM	CC1(C)CCC(CN2CCN(c3ccc(C(=O)NS(=O)(=O)c4cnc(OC[C@@H]5CCN(CC(F)F)C5)c(Cl)c4)c(Oc4cnc5[nH]ccc5c4)c3)CC2)=C(c2ccc(Cl)cc2)C1 [Example 281, N-[(5-chloro-6-{[(3R)-1-(2,2-difluoroethyl)pyrrolidin-3-yl]methoxy}pyridin-3-yl)sulfonyl]-4-(4-{[2-(4-chlorophenyl)-4,4-dimethylcyclohex-1-en-1-yl]methyl}piperazin-1-yl)-2-(1H-pyrrolo[2,3-b]pyridin-5-yloxy)benzamide]
32.2 nM	CC1(C)CCC(CN2CCN(c3ccc(C(=O)NS(=O)(=O)c4cnc(OCC5(F)CCN(C(CF)CF)CC5)c(Cl)c4)c(Oc4cnc5[nH]ccc5c4)c3)CC2)=C(c2ccc(Cl)cc2)C1 [Example 282, N-[(5-chloro-6-{[1-(1,3-difluoropropan-2-yl)-4-fluoropiperidin-4-yl]methoxy}pyridin-3-yl)sulfonyl]-4-(4-{[2-(4-chlorophenyl)-4,4-dimethylcyclohex-1-en-1-yl]methyl}piperazin-1-yl)-2-(1H-pyrrolo[2,3-b]pyridin-5-yloxy)benzamide]
13.1 nM	CN1CCC(F)(COc2ccc(S(=O)(=O)NC(=O)c3ccc(N4CCN(CC5=C(c6ccc(Cl)cc6)CC(C)(C)CC5)CC4)cc3Oc3cnc4[nH]ccc4c3)cc2Cl)CC1 [Example 283, N-({3-chloro-4-[(4-fluoro-1-methylpiperidin-4-yl)methoxy]phenyl}sulfonyl)-4-(4-{[2-(4-chlorophenyl)-4,4-dimethylcyclohex-1-en-1-yl]methyl}piperazin-1-yl)-2-(1H-pyrrolo[2,3-b]pyridin-5-yloxy)benzamide]
162 nM	CC1(C)CCC(CN2CCN(c3ccc(C(=O)NS(=O)(=O)c4ccc(OCC5CCOCC5)c(C#N)c4)c(Oc4cnc5[nH]ccc5c4)c3)CC2)=C(c2ccc(Cl)cc2)C1 [Example 284, 4-(4-{[2-(4-chlorophenyl)-4,4-dimethylcyclohex-1-en-1-yl]methyl}piperazin-1-yl)-N-{[3-cyano-4-(tetrahydro-2H-pyran-4-ylmethoxy)phenyl]sulfonyl}-2-(1H-pyrrolo[2,3-b]pyridin-5-yloxy)benzamide]
57.4 nM	CC1(C)CCC(CN2CCN(c3ccc(C(=O)NS(=O)(=O)c4cnc(OCC5(F)CCN(CC(F)F)CC5)c(Cl)c4)c(Oc4cnc5[nH]ccc5c4)c3)CC2)=C(c2ccc(Cl)cc2)C1 [Example 285, N-[(5-chloro-6-{[1-(2,2-difluoroethyl)-4-fluoropiperidin-4-yl]methoxy}pyridin-3-yl)sulfonyl]-4-(4-{[2-(4-chlorophenyl)-4,4-dimethylcyclohex-1-en-1-yl]methyl}piperazin-1-yl)-2-(1H-pyrrolo[2,3-b]pyridin-5-yloxy)benzamide]
34.5 nM	CC1(C)CCC(CN2CCN(c3ccc(C(=O)NS(=O)(=O)c4ccc(OCC5(F)CCOCC5)c(Cl)c4)c(Oc4cnc5[nH]ccc5c4)c3)CC2)=C(c2ccc(Cl)cc2)C1 [Example 286, N-({3-chloro-4-[(4-fluorotetrahydro-2H-pyran-4-yl)methoxy]phenyl}sulfonyl)-4-(4-{[2-(4-chlorophenyl)-4,4-dimethylcyclohex-1-en-1-yl]methyl}piperazin-1-yl)-2-(1H-pyrrolo[2,3-b]pyridin-5-yloxy)benzamide]
593 nM	CC1(C)CCC(CN2CCN(c3ccc(C(=O)NS(=O)(=O)c4cnc(OCC5CCC(F)(F)CC5)c(Cl)c4)c(Oc4cnc5[nH]ccc5c4)c3)CC2)=C(c2ccc(Cl)cc2)C1 [Example 287, N-({5-chloro-6-[(4,4-difluorocyclohexyl)methoxy]pyridin-3-yl}sulfonyl)-4-(4-{[2-(4-chlorophenyl)-4,4-dimethylcyclohex-1-en-1-yl]methyl}piperazin-1-yl)-2-(1H-pyrrolo[2,3-b]pyridin-5-yloxy)benzamide]
390 nM	CC1(C)CCC(CN2CCN(c3ccc(C(=O)NS(=O)(=O)c4cnc(OCC5(F)CCN(C(CF)CF)CC5)c(C(F)(F)F)c4)c(Oc4cnc5[nH]ccc5c4)c3)CC2)=C(c2ccc(Cl)cc2)C1 [Example 288, 4-(4-{[2-(4-chlorophenyl)-4,4-dimethylcyclohex-1-en-1-yl]methyl}piperazin-1-yl)-N-{[6-{[1-(1,3-difluoropropan-2-yl)-4-fluoropiperidin-4-yl]methoxy}-5-(trifluoromethyl)pyridin-3-yl]sulfonyl}-2-(1H-pyrrolo[2,3-b]pyridin-5-yloxy)benzamide]
669 nM	CC1(C)CCC(CN2CCN(c3ccc(C(=O)NS(=O)(=O)c4cnc(OCCC5CCCO5)c(Cl)c4)c(Oc4cnc5[nH]ccc5c4)c3)CC2)=C(c2ccc(Cl)cc2)C1 (stereo not shown) [Example 289, 4-(4-{[2-(4-chlorophenyl)-4,4-dimethylcyclohex-1-en-1-yl]methyl}piperazin-1-yl)-N-({5-chloro-6-[2-(tetrahydrofuran-2-yl)ethoxy]pyridin-3-yl}sulfonyl)-2-(1H-pyrrolo[2,3-b]pyridin-5-yloxy)benzamide]
107 nM	CC1CN(c2ccc(C(=O)NS(=O)(=O)c3ccc(NCC4CCOCC4)c([N+](=O)[O-])c3)c(Oc3cnc4[nH]ccc4c3)c2)CCN1CC1=C(c2ccc(Cl)cc2)CC(C)(C)CC1 (stereo not shown) [Example 290, 4-(4-{[2-(4-chlorophenyl)-4,4-dimethylcyclohex-1-en-1-yl]methyl}-3-methylpiperazin-1-yl)-N-({3-nitro-4-[(tetrahydro-2H-pyran-4-ylmethyl)amino]phenyl}sulfonyl)-2-(1H-pyrrolo[2,3-b]pyridin-5-yloxy)benzamide]
16.1 nM	CC1(C)CCC(CN2CCN(c3ccc(C(=O)NS(=O)(=O)c4ccc(NCCCNC5CC5)c([N+](=O)[O-])c4)c(Oc4cnc5[nH]ccc5c4)c3)CC2)=C(c2ccc(Cl)cc2)C1 [Example 291, 4-(4-{[2-(4-chlorophenyl)-4,4-dimethylcyclohex-1-en-1-yl]methyl}piperazin-1-yl)-N-[(4-{[3-(cyclopropylamino)propyl]amino}-3-nitrophenyl)sulfonyl]-2-(1H-pyrrolo[2,3-b]pyridin-5-yloxy)benzamide]
889 nM	COCCOc1ncc(S(=O)(=O)NC(=O)c2ccc(N3CCN(CC4=C(c5ccc(Cl)cc5)CC(C)(C)CC4)CC3)cc2Oc2cnc3[nH]ccc3c2)cc1Cl [Example 292, N-{[5-chloro-6-(2-methoxyethoxy)pyridin-3-yl]sulfonyl}-4-(4-{[2-(4-chlorophenyl)-4,4-dimethylcyclohex-1-en-1-yl]methyl}piperazin-1-yl)-2-(1H-pyrrolo[2,3-b]pyridin-5-yloxy)benzamide]
